Data from BindingDB's records for doi:10.1007/s00044-010-9334-1 (n/a, 2011).

Experiment: Inhibition of microtubule polymerisation in Rattus norvegicus (rat) A10 cells

EC50 [µM] | SMILES
2.9 | COc1cc(OC)c(C2C=C(c3cc(OC)ccc3OC)NC(=S)N2)c(OC)c1 (configuration not stated)
4.4 | COc1ccc(C2C=C(c3cc(OC)c(OC)c(OC)c3)NC(=S)N2)cc1O (configuration not stated)
